# Results published in patent US9650616B2, “Methods for increasing grain yield” (University of Florida Research Foundation, Inc., priority 2014, dated 2017).
# Residue numbers refer to the chain shown, from its start. Read-outs that look alike come from different tables or passages of the source.
# Columns and labels:
# [1] = biological target: T1, maize endosperm AGPase, large subunit variant RG (Q96R, D161G; numbering of SEQ ID NO: 20) (Zea mays, UniProt P55241+Q84PF5, D161G/Q96R); assay: Apparent kinetic constants with 3-PGA, 37° C., RG; type: biochemical; conditions: read-out: ATP Km
# T1 sequence (P55241 46-516 D161G/Q96R): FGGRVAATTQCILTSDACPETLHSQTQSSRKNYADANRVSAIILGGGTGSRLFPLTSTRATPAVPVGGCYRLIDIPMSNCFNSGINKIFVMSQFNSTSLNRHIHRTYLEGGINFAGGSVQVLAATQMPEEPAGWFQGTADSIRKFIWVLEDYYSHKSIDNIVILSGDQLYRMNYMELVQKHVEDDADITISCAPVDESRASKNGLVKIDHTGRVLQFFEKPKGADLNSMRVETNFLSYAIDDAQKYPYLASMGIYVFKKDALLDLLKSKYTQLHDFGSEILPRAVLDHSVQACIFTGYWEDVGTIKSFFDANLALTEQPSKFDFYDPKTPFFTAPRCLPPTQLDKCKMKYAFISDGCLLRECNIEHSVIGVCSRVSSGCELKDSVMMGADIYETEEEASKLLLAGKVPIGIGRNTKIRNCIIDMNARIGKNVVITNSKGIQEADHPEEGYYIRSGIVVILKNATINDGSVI
# T1 sequence (Q84PF5 1-474): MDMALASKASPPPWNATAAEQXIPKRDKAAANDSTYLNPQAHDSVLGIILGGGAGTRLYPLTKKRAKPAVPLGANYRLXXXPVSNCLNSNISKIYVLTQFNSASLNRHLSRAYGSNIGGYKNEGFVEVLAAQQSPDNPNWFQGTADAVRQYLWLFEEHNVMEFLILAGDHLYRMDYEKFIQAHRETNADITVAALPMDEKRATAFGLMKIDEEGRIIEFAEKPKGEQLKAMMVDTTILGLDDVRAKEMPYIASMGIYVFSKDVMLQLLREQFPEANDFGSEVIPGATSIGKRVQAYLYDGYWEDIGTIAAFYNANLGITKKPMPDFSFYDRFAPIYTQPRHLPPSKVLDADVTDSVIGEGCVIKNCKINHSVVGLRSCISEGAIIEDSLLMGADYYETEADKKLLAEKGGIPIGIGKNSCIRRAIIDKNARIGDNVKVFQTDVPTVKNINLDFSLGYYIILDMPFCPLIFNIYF
# Description: (§1) The small and large subunit plasmids of maize endosperm AGPase (pMONcBt2 and pMONcSh2, respectively) (Giroux et al., 1996) were expressed in E. coli AC70R1-504 cells (Iglesias et al., 1993) as previously described (Boehlein et al., 2008).
# (§2) An endpoint assay was used to determine the rate of the AGPase reaction by coupling the formation of PPi to a decrease in NADH concentration (Boehlein et al., 2008). […] The Michaelis constants (Km) were obtained by varying one substrate in the presence of saturating concentrations of the second substrate. The activation constants were obtained by varying the activator at fixed levels of both substrates. All reactions were performed at 37° C. and mixes were prewarmed before starting the reaction with enzyme. […] The absorbance at 340 nm was monitored after 30 min and the amount of PPi produced was determined from a standard curve using PPi in complete reaction mixtures lacking AGPase. Blank samples contained complete reaction mixtures without enzyme and the change in absorbance between the blank and the reaction was used to calculate the amount of PPi produced. […]
# (§3) The apparent Michaelis constant and maximum velocity of each reaction was calculated from a V vs. S plots using nonlinear regression analysis and the following equation, v=VmaxS/(Km+S), where v is the measured velocity, Vmax is the maximum velocity, S is the substrate concentration. […]
# [2] = system: maize endosperm AGPase, evolutionary mutant SH2-E (SH2E); conditions: absence of 3-PGA, ATP varied, Pi inhibition, NC, read-out: Km (ATP); cited from earlier work
# [3] = biological target: T2, maize endosperm AGPase, large subunit variant D161G (numbering of SEQ ID NO: 20) (Zea mays, UniProt P55241+Q84PF5, D161G); assay: Apparent kinetic constants with 3-PGA, 37° C., D161G; type: biochemical
# T2 sequence (P55241 46-516 D161G): T1 sequence (P55241 46-516 D161G/Q96R) with R51Q
# T2 sequence (Q84PF5 1-474): T1 sequence (Q84PF5 1-474)
# Description: as §1, §2, §3
smiles,measurement,setting,value
Nc1ncnc2c1ncn2[C@@H]1O[C@H](COP(=O)(O)OP(=O)(O)OP(=O)(O)O)[C@@H](O)[C@H]1O [ATP],Km,[1],63 µM
same,Km,[2],970 µM
same,Km,"[3]; read-out: ATP Km, with 3-PGA, 37° C.",44 µM
same,Km,"[3]; read-out: Km for ATP, in the presence of 3-PGA",40 µM
